Laboratory results taken from patent US20040121028A1, “Plant based agents as bioavailability / bioefficacy enhancers for drugs and nutraceuticals” (COUNCIL OF SCIENTIFIC AND INDUSTRIAL RESEARCH, priority 2002, published 2004).

Test: Enhancement in bioavailability of drugs by the Cuminum cyminum active molecule / fraction
[1] = drug given with Active molecule (3′,5-dihydroxy flavone-7-O-β-D-galacturonide-4′-O-β-D-glucopyranoside)
[2] = drug given with Fraction from Cuminum cyminum

Row | Compound | % Enhancement in bioavailability [1] [%] | % Enhancement in bioavailability [2] [%]
1 | CCc1cc(C(N)=S)ccn1 [Ethionamide] | 120 | 110
2 | CS(=O)(=O)c1ccc(C2=C(c3ccccc3)C(=O)OC2)cc1 [Rofecoxib] | 43 | 70
3 | CNC(=C[N+](=O)[O-])NCCSCc1ccc(CN(C)C)o1 [Ranitidine] | 95 | 95
4 | CCn1cc(C(=O)O)c(=O)c2cc(F)c(N3CCNCC3)cc21 [Norfloxacin] | 45 | 55
5 | NCC[C@H](O)C(=O)N[C@@H]1C[C@H](N)[C@@H](O[C@H]2O[C@H](CN)[C@@H](O)[C@H](O)[C@H]2O)[C@H](O)[C@H]1O[C@H]1O[C@H](CO)[C@@H](O)[C@H](N)[C@H]1O [Amikacin] | 76 | 87
6 | C[C@@H]1[C@H](O)[C@@H](C)/C=C/C=C/C=C/C=C/C=C/C=C/C=C/[C@H](O[C@@H]2O[C@H](C)[C@@H](O)[C@H](N)[C@@H]2O)C[C@@H]2O[C@](O)(C[C@@H](O)C[C@@H](O)[C@H](O)CC[C@@H](O)C[C@@H](O)CC(=O)O[C@H]1C)C[C@H](O)[C@H]2C(=O)O [Amphotericin B] | 95 | 90
7 | CC(=O)N1CCN(c2ccc(OCC3COC(Cn4ccnc4)(c4ccc(Cl)cc4Cl)O3)cc2)CC1 (stereo not drawn) [Ketoconazole] | 77 | 85
8 | CC1(C)S[C@@H]2[C@H](NC(=O)[C@H](N)c3ccc(O)cc3)C(=O)N2[C@H]1C(=O)O [Amoxycillin] | 68 | 105
9 | CO/N=C(\C(=O)N[C@@H]1C(=O)N2C(C(=O)O)=C(CSc3nc(=O)c(O)nn3C)CS[C@H]12)c1csc(N)n1 [Cefatrioxone] | 75 | 100
10 | CS(=O)(=O)Nc1ccc([N+](=O)[O-])cc1Oc1ccccc1 [Nimesulide] | 90 | 115
11 | NNC(=O)c1ccncc1 [Isoniazid] | – | 30
12 | O=C(CCCN1CCC(O)(c2ccc(Cl)cc2)CC1)c1ccc(F)cc1 [Haloperidol] | 72 | 60
13 | CCOC(=O)C1=C(COCCN)NC(C)=C(C(=O)OC)C1c1ccccc1Cl (stereo not drawn) [Amlodipine] | 80 | 130
14 | CN/C(=N/CCSCc1nc[nH]c1C)NC#N [Cimetidine] | 76 | 70
15 | CC(C)(C)NCC(O)c1ccc(O)c(CO)c1 (stereo not drawn) [Salbutamol] | 98 | 75
16 | O=C(O)Cc1ccccc1Nc1c(Cl)cccc1Cl [Diclofenac] | 105 | 125
17 | Nc1nc2c(ncn2COCCO)c(=O)[nH]1 [Acyclovir] | 89 | 110

Row | Compound | % Enhancement in bioavailability [1] [%] | % Enhancement in bioavailability [2] [%]
18 | C=CC[C@@H]1/C=C(\C)C[C@H](C)C[C@H](OC)[C@H]2O[C@@](O)(C(=O)C(=O)N3CCCC[C@H]3C(=O)O[C@H](/C(C)=C/[C@@H]3CC[C@@H](O)[C@H](OC)C3)[C@H](C)[C@@H](O)CC1=O)[C@H](C)C[C@@H]2OC [Tacrolimus] | 90 | 110
19 | N[C@@H]1CON=C1O [Cycloserine] | 85 | 110
20 | Cn1c(=O)c2[nH]cnc2n(C)c1=O [Theophylline] | 75 | 95
21 | CC1=C(C(=O)O)N2C(=O)[C@@H](NC(=O)[C@H](N)c3ccc(O)cc3)[C@H]2SC1 [Cefadroxil] | 85 | 120
22 | Cc1cn([C@H]2C[C@H](N=[N+]=[N-])[C@@H](CO)O2)c(=O)[nH]c1=O [Zidovudine] | 120 | 135
23 | CC[C@H]1OC(=O)[C@H](C)[C@@H](O[C@H]2C[C@@](C)(OC)[C@@H](O)[C@H](C)O2)[C@H](C)[C@@H](O[C@@H]2O[C@H](C)C[C@H](N(C)C)[C@H]2O)[C@](C)(O)C[C@@H](C)C(=O)[C@H](C)[C@@H](O)[C@]1(C)O [Erythromycin] | 70 | 80
24 | Cc1nnc2n1-c1ccc(Cl)cc1C(c1ccccc1)=NC2 [Alprazolam] | 70 | 75
25 | CN(Cc1cc(Br)cc(Br)c1N)C1CCCCC1 [Bromhexine] | – | 35
26 | CC[C@H]1OC(=O)[C@H](C)[C@@H](O[C@H]2C[C@@](C)(OC)[C@@H](O)[C@H](C)O2)[C@H](C)[C@@H](O[C@@H]2O[C@H](C)C[C@H](N(C)C)[C@H]2O)[C@](C)(O)C[C@@H](C)CN(C)[C@H](C)[C@@H](O)[C@]1(C)O [Azithromycin] | 82 | 115
27 | COc1ccc2[nH]c([S+]([O-])Cc3ncc(C)c(OC)c3C)nc2c1 (stereo not drawn) [Omeprazole] | 72 | 87
28 | Nc1ccc(S(=O)(=O)c2ccc(N)cc2)cc1 [Dapsone] | 67 | 93
29 | COc1cccc2c1C(=O)c1c(O)c3c(c(O)c1C2=O)C[C@@](O)(C(=O)CO)C[C@@H]3O[C@H]1C[C@H](N)[C@H](O)[C@H](C)O1 [Doxorubicin] | 78 | 90
30 | CN1C(C(=O)Nc2ccccn2)=C(O)c2ccccc2S1(=O)=O [Piroxicam] | 76 | 100
31 | CC(C)NCC(O)COc1cccc2ccccc12 (stereo not drawn) [Propranolol] | 85 | 140
32 | O=c1[nH]cc(F)c(=O)[nH]1 [5-Fluorouracil] | 110 | 240
33 | CO[C@H]1/C=C/O[C@@]2(C)Oc3c(C)c(O)c4c(O)c(c(/C=N/N5CCN(C)CC5)c(O)c4c3C2=O)NC(=O)/C(C)=C\C=C\[C@H](C)[C@H](O)[C@@H](C)[C@@H](O)[C@@H](C)[C@H](OC(C)=O)[C@@H]1C [Rifampicin] | 90 | 170
34 | CN(Cc1cnc2nc(N)nc(N)c2n1)c1ccc(C(=O)N[C@@H](CCC(=O)O)C(=O)O)cc1 [Methotrexate] | 95 | 140
